In patent US20210370019A1, “Method of Treatment Using Negative Pressure Renal Therapy and Medicament(s)” (Strataca Systems Limited, priority 2020, published 2021):
Read-outs that look alike come from different tables or passages of the source.

What was measured:
[1] = cited from earlier work
[2] = tested on: animal model of hypervolemic tamponade
[3] = tested on: congestion heart failure (HF) model; settings: for diuresis / natriuresis: furosemide diuresis, No-HF; for filtration fraction: furosemide infusion

With `NS(=O)(=O)c1cc(C(=O)O)c(NCc2ccco2)cc1Cl` [furosemide] as the molecule, how does the “increase in renal interstitial pressure” value ([1]; furosemide administration, as reported) read?
The value was about 7 mmHg.

And the “effect on GFR” value ([1]; known effect of furosemide)?
Its value is “can reduce GFR”.

What about the “decrease in urine output” value ([2]; tamponade (CVP approx. 20 mm Hg), continued presence of furosemide, compared to mild congestion state of saline loading) of the same molecule?
The value was −35%.

And the “increase in urine output” value ([2]; tamponade, negative pressure (−30 mm Hg) in combination with furosemide, beyond the use of diuretics alone)?
Its value is “+67%”.

What about the diuresis ([3]; control kidney (no rNPT)) of the same molecule?
Its diuresis is 11.8 ± 3.7 mL/min.

And the natriuresis ([3]; control kidney (no rNPT))?
The natriuresis was 1.5 ± 0.5 mmol/min.

What about the diuresis ([3]; rNPT kidney (−30 mmHg)) of the same molecule?
Its diuresis is 19.7 ± 4.5 mL/min.

And the natriuresis ([3]; rNPT kidney (−30 mmHg))?
Its natriuresis is 2.4 ± 0.6 mmol/min.

And the filtration fraction ([3]; during rNPT (similar effect between HF and no HF periods))?
Its filtration fraction is 55.6±24.8%.

And the filtration fraction ([3]; without rNPT)?
The filtration fraction was 49.0±20.8%.
